{
  "source": "patent US10696623B2",
  "about": "“Phenolic acid derivative compound and use thereof” (DAEBONG LS, LTD, priority 2015, dated 2020)",
  "assay": "DPPH radical scavenging activity (antioxidant effect)",
  "type": "biochemical",
  "details": "0.2 mM DPPH in methanol, 10 min at room temperature, absorbance 517 nm; compared with ascorbic acid (FIG. 1)",
  "description": "The 1,1-diphenyl-2-picrylhydrazyl (DPPH) radical scavenging activities of the phenolic acid derivative compounds prepared in Examples 1-5 were measured to evaluate the antioxidant activities of the compounds against free radicals. Ascorbic acid was used as a positive control.\n1,1-Diphenyl-2-picrylhydrazyl (DPPH) radical was purchased from Sigma Chemical Co. (USA) and L-ascorbic acid purchased from Sigma (USA) were used for testing.\n100 μl of a 0.2 mM DPPH solution in methanol and 100 μl of each of the compounds at different concentrations were prepared in a 96-well plate. After the reaction was allowed to proceed at room temperature for 10 min, the absorbance of each sample was measured at 517 nm.",
  "data": [
    {"smiles": "CCOC(=O)[C@H](Cc1ccccc1)NC(=O)c1cc(O)c(O)c(O)c1", "note": "[Example 1, (S)-ethyl-3-phenyl-2-(3,4,5-trihydroxybenzamido)propanoate]", "values": [
      {"measurement": "DPPH radical scavenging activity (antioxidant activity)", "value": "high activity compared to the control ascorbic acid"}
    ]}
  ]
}
